# Tested on: leaky retinal blood vessels
# Assay: Fundus fluorescence angiogram imaging in lipid injected rat CNV model
# Assay type: in vivo, brown Norway rats
# Settings: 5 mg/kg, imaging on day 21 after lipid injection, 488 filter
# Method: White arrows indicate precise location of retinal leakage identified by D-FITC nanoparticles.
# Dendrimer fluorescent probes were investigated for their application in longitudinal imaging of retinal inflammation and oxidative stress. […] Lipid was injected in brown Norway rats via subretinal injection at day 0 and the fluorescence angiogram imaging was performed on day 21. The rats were anesthetized and administered with sodium fluorescein or D-FITC (5 mg/kg) and the rats were imaged under Micron-3 fundus microscope using a 488 filter at different time points (10 mins, 1 hr and 4 hrs). […] Free FITC perfuses and clears from the retina quickly within 1 hr. At early time points (10 mins) post injection free FITC leaked from the retinal blood vessels (FIG. 2, white arrows) in the areas of inflammation causing fluorescence background thereby making in unclear the exact location of the leaky blood vessels.
structure (smiles),measurement,value
"O=C1OC2(c3ccc(O)cc3Oc3cc(O)ccc32)c2ccccc21 [free FITC, sodium fluorescein]",time to clearance from the retina,≤ 1 h

# Reference: US11160881B2, “Dendrimer compositions for use in angiography” (The Johns Hopkins University, priority 2017, dated 2021)
